Source: patent publication US6689806B1, “Indolinone compounds as kinase inhibitors” (Sugen, Inc., priority 1999, dated 2004)

What was measured:
Type in all cases: cell-based
Her2 = molecular target: T1, Her2 (Homo sapiens, UniProt P04626); assay: EGF-induced Her2-driven BrdU incorporation; settings: Table 7; 3T3 cells with EGF-R/Her2 chimeric receptor, EGF 2 nM; read-out: BrdU DNA syn. HER2 IC50
T1 construct: fused on or other part: P00533 (Epidermal growth factor receptor)
Method in brief: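 3T3 cells expressing an EGF-R extracellular/Her2 intracellular chimera were serum-starved 24 h, then given compound (7 concentrations) together with 2 nM EGF. After 20 h, BrdU (final […]) was added for 1.5 h. Incorporation was detected with anti-BrdU antibody, read at 410 nm against 490 nm reference.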

EGFR = EGFR (Homo sapiens, UniProt P00533); assay: EGF-induced BrdU incorporation assay; parameters: expressed in transfected cells; host or cells: 3T3; settings: Table 7; 3T3 cells expressing human EGF-R, EGF 2 nM; read-out: BrdU DNA syn. EGFr IC50
EGFR, sequence (P00533 25-1210): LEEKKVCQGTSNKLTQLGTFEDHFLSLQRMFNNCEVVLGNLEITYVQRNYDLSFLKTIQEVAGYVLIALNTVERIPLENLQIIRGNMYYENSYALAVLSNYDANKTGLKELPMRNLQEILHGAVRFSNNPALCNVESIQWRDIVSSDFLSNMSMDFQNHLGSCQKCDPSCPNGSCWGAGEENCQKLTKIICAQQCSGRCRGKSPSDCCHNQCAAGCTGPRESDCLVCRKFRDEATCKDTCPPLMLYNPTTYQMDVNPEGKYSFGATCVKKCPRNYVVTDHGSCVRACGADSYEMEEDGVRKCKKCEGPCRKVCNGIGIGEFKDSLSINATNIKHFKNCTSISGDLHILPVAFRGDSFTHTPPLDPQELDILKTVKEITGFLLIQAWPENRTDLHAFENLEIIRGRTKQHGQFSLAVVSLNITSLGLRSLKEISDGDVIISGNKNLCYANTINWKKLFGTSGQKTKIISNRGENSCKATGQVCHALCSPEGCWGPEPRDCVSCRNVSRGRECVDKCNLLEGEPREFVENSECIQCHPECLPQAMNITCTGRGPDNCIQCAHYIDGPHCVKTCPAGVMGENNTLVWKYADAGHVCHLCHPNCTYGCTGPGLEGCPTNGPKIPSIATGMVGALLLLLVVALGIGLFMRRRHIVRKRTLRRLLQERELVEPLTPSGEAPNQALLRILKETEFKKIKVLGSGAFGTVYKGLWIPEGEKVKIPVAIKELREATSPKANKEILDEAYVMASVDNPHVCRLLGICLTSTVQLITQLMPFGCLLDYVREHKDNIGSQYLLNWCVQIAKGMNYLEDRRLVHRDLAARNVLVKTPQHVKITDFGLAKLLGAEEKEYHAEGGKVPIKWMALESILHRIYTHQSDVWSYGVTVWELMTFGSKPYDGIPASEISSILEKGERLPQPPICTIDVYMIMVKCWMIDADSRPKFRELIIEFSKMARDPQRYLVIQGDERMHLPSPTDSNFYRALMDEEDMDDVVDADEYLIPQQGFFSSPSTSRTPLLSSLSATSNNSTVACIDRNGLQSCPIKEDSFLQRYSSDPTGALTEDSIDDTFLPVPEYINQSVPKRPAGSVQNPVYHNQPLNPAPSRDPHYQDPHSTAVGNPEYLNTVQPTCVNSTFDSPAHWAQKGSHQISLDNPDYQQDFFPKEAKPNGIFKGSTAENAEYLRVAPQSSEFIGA
Protocol: (§1) The cellular/biologic assays described herein measure the amount of DNA made in response to activation of a test kinase, which is a general measure of a proliferative response. The general procedure for this assay is as follows: a compound is introduced to cells expressing the test kinase, either naturally or recombinantly, for some period of time after which, if the test kinase is a receptor, a ligand known to activate the receptor is added. After incubation at least overnight, a DNA labeling reagent such as Bromodeoxy-uridine (BrdU) or 3H-thymidine is added. The amount of labeled DNA is detected with either an anti-BrdU antibody or by measuring radioactivity and is compared to control cells not contacted with a test compound.
EGF-Induced BrdU Incorporation Assay
(8) 3T3 cell line genetically engineered to express human EGF-R.
(1) Cells are seeded at 8000 cells/well in 10% CS, 2 mM Gin in DMEM, in a 96 well plate. Cells are incubated overnight at 37° C. in 5% CO2.
(§2) (2) After 24 hours, the cells are washed with PBS, and then are serum starved in serum free medium (0% CS DMEM with 0.1% BSA) for 24 hours.
(§3) (3) On day 3, ligand (EGF, 2 nM, prepared in DMEM with 0.1%/BSA) and test compounds are added to the cells simultaneously. The negative control wells receive serum free DMEM with 0.1% BSA only; the positive control cells receive the ligand (EGF) but no test compound. Test compounds are prepared in serum free DMEM with ligand in a 96 well plate, and serially diluted for 7 test concentrations.
(§4) (4) After 20 hours of ligand activation, diluted BrdU labeling reagent (1: 100 in DMEM, 0.1% BSA) is added and the cells are incubated with BrdU (final concentration=10 μM) for 1.5 hours.
(§5) (10) The absorbance of the samples are measured at 410 nm (in “dual wavelength” mode with a filter reading at 490 nm, as a reference wavelength) on a Dynatech ELISA plate reader.

PDGFR = PDGFR (Homo sapiens, UniProt P09619); assay: PDGF-induced BrdU incorporation assay; parameters: expressed in transfected cells; host or cells: 3T3; settings: Table 7; 3T3 cells expressing human PDGF-R, PDGF 3.8 nM; read-out: BrdU DNA syn. PDGFr IC50
PDGFR, sequence (P09619 33-1106): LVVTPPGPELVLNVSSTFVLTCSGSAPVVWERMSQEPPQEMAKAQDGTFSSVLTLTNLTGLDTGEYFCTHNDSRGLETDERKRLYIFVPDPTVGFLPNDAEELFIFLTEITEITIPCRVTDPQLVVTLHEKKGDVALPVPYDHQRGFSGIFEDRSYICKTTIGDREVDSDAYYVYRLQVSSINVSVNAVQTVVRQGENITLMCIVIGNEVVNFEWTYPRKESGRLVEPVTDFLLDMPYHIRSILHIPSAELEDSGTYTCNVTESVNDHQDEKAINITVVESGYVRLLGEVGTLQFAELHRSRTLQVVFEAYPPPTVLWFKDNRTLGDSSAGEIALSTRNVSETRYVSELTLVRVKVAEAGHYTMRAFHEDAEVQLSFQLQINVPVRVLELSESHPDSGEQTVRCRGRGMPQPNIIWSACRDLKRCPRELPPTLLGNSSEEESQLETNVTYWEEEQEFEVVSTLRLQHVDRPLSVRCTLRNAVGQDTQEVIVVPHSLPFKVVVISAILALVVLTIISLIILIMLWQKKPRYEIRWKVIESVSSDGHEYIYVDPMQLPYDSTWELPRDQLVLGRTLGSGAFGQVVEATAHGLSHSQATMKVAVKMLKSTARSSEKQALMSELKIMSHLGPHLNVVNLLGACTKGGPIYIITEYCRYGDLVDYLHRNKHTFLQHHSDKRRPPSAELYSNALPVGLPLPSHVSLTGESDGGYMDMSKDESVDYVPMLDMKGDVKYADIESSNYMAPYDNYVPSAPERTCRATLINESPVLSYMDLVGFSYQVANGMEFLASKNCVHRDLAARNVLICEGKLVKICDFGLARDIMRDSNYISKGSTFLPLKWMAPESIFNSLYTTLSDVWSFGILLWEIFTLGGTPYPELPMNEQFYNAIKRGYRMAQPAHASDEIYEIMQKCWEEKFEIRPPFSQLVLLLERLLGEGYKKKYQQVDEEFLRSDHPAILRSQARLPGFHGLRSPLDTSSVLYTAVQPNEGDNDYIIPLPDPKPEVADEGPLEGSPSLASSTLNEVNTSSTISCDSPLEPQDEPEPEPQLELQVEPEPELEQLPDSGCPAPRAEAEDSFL
Protocol: as §1
PDGF-Induced BrdU Incorporation Assay
(8) 3T3 cell line genetically engineered to express human PDGF-R.
(1) Cells are seeded at 8000 cells/well in DMEM, 10% CS, 2 mM Gln in a 96 well plate. Cells are incubated overnight at 37° C. in 5% CO2.
as §2
as §3, with “(PDGF, 3.8” for “(EGF, 2”, “0.1% BSA)” for “0.1%/BSA)”, “(PDGF)” for “(EGF)”
as §4, §5

Measured: IC50

T1 sequence (P04626 676-1255 limits assumed): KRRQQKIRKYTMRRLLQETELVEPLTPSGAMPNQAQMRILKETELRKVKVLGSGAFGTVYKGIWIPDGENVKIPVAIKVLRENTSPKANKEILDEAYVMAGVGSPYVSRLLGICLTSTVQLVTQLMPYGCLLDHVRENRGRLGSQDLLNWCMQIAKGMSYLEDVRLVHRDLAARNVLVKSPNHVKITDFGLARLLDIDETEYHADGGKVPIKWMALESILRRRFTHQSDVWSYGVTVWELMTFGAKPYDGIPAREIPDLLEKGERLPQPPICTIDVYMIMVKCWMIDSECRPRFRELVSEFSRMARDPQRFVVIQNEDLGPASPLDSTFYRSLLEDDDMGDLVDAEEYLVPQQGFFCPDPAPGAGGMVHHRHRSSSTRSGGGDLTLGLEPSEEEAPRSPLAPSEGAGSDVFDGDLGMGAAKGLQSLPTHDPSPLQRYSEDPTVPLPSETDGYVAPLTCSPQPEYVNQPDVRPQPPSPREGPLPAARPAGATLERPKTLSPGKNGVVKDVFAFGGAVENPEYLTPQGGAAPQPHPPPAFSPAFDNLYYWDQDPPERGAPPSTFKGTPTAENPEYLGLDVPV

Cc1ccc(O)c(C=C2C(=O)Nc3cccc(CCO)c32)n1 (racemic) [IN-022, 4-(2-Hydroxy-ethyl)-3-(3-hydroxy-6-methyl-pyridin-2-ylmethylene)-1,3-dihydro-indol-2-one]
> 50 µM: all assays above
